Data on 13 molecules can be found in EP2130831A1, “CDC25 inhibitors” (InterMed Discovery GmbH, priority 2008, dated 2009).

Where two headings read alike, the source gives them in different places.

For experiment [1], the target named is T1, CDC25C (Homo sapiens, UniProt P30307).
T1 sequence (P30307 1-473): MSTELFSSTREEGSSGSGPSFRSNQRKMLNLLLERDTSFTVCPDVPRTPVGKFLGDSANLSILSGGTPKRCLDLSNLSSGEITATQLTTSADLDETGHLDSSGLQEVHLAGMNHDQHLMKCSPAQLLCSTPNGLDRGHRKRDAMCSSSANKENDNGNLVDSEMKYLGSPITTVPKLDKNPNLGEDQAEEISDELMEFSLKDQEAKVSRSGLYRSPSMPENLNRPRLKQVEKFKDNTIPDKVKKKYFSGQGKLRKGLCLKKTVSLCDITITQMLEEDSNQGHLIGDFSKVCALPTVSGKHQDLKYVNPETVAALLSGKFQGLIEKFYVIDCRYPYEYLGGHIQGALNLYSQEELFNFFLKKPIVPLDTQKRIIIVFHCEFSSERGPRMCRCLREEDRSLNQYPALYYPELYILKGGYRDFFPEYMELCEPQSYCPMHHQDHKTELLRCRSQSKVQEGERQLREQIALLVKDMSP
The experiment can be described thus: CDC25C Enzyme Assay (hydrolysis of fluorogenic substrate OMFP). It counts as biochemical. On the procedure:
The assay principle was hydrolysis of an artificial fluorogenic substrate of CDC25C, 3-0-methyl-fluorescein monophosphate (OMFP). […] The assay was performed in 96 well microtiter plates (Greiner 96 well black FIA plates) at ambient temperature.
The additions to the wells were as follows: 1 Addition of 4 µl of a DMSO solution of the test compound; controls received 4 µl of DMSO instead 2 Addition of 76 µl assay buffer (assay buffer: 100 mM Tris pH 8.2, 40 mM NaCl. 5 mM DTT, 20% glycerol) 3 Addition of 10 µl CDC25 C (CDC25 C in assay buffer; protein final concentration 1.1 µg/mL) 4 Start of reaction by addition of 10 µl OMFP (substrate in assay buffer; final concentration of OMFP in assay: 90 µM )
Ortho-vanadate was used as a reference inhibitor. Background controls contained buffer, substrate and DMSO, but no enzyme. The microtiter plates were analyzed using a Tecan Ultra fluorescence reader.

Experiment [2] deals with HCT116. The experiment can be described thus: Cell proliferation Assay (Alamar Blue), HCT116. Format: cell-based. The following applies: Homo sapiens, HCT-116, 72 hrs. On the procedure:
(§1) Used cell lines: HCT116; DU145; A549, H460 In a 96-well plate, 3000 cells/well were plated in 100 µl DMEM containing 10% FBS, 10 mM HEPES and 1% Penicllin/Streptomycin. To each well 50 µl of additional growth media containing the compound with 0.1% DMSO was added. Cells were grown for 72 hrs. at 37°C. 20 µl of Alamar Blue reagent was added and incubated for 3-5 hours until color develops. Plates were read in a SpectraMax Gemini (Molecular Devices, CA) with 544 nm excitation and 590 nm emission wavelength.

Experiment [3] deals with DU145. The experiment can be described thus: Cell proliferation Assay (Alamar Blue), DU145. Format: cell-based. The following applies: Homo sapiens, DU-145, 72 hrs. On the procedure: as §1
Experiment [4] deals with H460. In words: Cell proliferation Assay (Alamar Blue), H460. It counts as cell-based. As to conditions: Homo sapiens, NCI-H460, 72 hrs. On the procedure:
as §1

Experiment [5] has as its target T2, CDC25A (Homo sapiens, UniProt P30304).
T2 sequence (P30304 1-524): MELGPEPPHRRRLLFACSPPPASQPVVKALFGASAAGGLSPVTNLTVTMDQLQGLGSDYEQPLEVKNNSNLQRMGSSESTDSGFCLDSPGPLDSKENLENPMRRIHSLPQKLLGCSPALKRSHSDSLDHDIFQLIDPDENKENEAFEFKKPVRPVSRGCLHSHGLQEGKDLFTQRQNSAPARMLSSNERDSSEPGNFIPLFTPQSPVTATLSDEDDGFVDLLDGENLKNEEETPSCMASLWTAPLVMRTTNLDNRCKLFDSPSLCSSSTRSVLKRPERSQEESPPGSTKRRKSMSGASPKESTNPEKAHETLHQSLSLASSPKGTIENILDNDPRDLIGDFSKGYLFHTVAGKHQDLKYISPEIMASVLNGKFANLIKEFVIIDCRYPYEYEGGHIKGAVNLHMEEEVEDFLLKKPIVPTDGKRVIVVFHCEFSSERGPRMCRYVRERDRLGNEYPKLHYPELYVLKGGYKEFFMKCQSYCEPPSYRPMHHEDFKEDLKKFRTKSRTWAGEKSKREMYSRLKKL
In words: CDC25A inhibition assay (sub-type selectivity). It counts as biochemical. As to conditions: after 20 minutes of pre-incubation; read-out: IC50 against CDC25A. An excerpt: (§2) The compound of example 5 was thoroughly characterized towards its selectivity for CDC25 sub-types A, B, and C.

In experiment [6] the target is T3, CDC25B (Homo sapiens, UniProt P30305).
T3 sequence (P30305 1-580): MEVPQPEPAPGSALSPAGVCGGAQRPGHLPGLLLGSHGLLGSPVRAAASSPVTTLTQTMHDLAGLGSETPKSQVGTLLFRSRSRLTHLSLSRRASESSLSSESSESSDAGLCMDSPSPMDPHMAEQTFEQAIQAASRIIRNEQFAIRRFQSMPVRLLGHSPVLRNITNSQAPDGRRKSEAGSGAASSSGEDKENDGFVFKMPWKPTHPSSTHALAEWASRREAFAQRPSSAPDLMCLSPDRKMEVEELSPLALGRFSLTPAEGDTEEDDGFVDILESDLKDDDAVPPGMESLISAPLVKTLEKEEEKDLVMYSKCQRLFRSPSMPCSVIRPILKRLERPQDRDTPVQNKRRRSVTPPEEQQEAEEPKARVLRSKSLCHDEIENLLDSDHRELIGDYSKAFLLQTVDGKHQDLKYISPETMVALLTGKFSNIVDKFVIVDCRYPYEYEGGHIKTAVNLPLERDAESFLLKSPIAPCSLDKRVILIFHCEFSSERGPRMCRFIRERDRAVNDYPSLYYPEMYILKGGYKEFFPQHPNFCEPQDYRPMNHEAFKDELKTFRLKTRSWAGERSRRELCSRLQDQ
The experiment can be described thus: CDC25B inhibition assay (sub-type selectivity). Format: biochemical. As to conditions: after 20 minutes of pre-incubation; read-out: IC50 against CDC25B.
From the text: as §2

In experiment [7] the target is T4, PTP1 B (Homo sapiens, UniProt P18031).
T4 sequence (P18031 1-435): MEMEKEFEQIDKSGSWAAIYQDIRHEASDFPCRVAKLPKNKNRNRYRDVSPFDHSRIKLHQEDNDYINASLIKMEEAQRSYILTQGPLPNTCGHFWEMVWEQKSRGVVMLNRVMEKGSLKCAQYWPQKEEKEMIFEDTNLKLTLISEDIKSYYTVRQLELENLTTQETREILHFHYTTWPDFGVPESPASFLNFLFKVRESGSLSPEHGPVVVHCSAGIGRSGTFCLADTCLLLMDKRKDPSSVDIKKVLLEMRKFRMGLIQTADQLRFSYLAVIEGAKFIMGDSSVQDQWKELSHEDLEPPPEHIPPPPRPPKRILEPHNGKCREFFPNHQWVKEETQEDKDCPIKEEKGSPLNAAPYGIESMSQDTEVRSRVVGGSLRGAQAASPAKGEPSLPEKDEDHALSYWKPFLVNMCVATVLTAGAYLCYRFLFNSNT
The experiment can be described thus: Phosphatase counter-screen against PTP1 B. It counts as biochemical.

Experiment [8] addresses LAR (PTPRF) (Homo sapiens, UniProt P10586). In words: Phosphatase counter-screen against LAR (PTPRF). It counts as biochemical.
Experiment [9] concerns A549. In words: Cell proliferation Assay (Alamar Blue), A549. Format: cell-based. As to conditions: Homo sapiens, 72 hrs. On the procedure:
Used cell lines: HCT116; DU145; A549, H460 In a 96-well plate, 3000 cells/well were plated in 100 µl DMEM containing 10% FBS, 10 mM HEPES and 1% Penicllin/Streptomycin. To each well 50 µl of additional growth media containing the compound with 0.1% DMSO was added. Cells were grown for 72 hrs. at 37°C. 20 µl of Alamar Blue reagent was added and incubated for 3-5 hours until color develops. Plates were read in a SpectraMax Gemini (Molecular Devices, CA) with 544 nm excitation and 590 nm emission wavelength. Table #5: Results assay #2

The subject of experiment [10] is leukemia cell line (P388). The experiment can be described thus: In vitro cell assays against a leukemia cell line. It counts as cell-based. As to conditions: result in words.
Experiment [11] deals with CDC25. As to conditions: literature reports; cited from earlier work.
[12] abbreviates: OMFP 90 µM, ambient temperature, assay run time 20 minutes, read-out: IC50.

Sequence of LAR (PTPRF) (P10586 30-1907, species assumed): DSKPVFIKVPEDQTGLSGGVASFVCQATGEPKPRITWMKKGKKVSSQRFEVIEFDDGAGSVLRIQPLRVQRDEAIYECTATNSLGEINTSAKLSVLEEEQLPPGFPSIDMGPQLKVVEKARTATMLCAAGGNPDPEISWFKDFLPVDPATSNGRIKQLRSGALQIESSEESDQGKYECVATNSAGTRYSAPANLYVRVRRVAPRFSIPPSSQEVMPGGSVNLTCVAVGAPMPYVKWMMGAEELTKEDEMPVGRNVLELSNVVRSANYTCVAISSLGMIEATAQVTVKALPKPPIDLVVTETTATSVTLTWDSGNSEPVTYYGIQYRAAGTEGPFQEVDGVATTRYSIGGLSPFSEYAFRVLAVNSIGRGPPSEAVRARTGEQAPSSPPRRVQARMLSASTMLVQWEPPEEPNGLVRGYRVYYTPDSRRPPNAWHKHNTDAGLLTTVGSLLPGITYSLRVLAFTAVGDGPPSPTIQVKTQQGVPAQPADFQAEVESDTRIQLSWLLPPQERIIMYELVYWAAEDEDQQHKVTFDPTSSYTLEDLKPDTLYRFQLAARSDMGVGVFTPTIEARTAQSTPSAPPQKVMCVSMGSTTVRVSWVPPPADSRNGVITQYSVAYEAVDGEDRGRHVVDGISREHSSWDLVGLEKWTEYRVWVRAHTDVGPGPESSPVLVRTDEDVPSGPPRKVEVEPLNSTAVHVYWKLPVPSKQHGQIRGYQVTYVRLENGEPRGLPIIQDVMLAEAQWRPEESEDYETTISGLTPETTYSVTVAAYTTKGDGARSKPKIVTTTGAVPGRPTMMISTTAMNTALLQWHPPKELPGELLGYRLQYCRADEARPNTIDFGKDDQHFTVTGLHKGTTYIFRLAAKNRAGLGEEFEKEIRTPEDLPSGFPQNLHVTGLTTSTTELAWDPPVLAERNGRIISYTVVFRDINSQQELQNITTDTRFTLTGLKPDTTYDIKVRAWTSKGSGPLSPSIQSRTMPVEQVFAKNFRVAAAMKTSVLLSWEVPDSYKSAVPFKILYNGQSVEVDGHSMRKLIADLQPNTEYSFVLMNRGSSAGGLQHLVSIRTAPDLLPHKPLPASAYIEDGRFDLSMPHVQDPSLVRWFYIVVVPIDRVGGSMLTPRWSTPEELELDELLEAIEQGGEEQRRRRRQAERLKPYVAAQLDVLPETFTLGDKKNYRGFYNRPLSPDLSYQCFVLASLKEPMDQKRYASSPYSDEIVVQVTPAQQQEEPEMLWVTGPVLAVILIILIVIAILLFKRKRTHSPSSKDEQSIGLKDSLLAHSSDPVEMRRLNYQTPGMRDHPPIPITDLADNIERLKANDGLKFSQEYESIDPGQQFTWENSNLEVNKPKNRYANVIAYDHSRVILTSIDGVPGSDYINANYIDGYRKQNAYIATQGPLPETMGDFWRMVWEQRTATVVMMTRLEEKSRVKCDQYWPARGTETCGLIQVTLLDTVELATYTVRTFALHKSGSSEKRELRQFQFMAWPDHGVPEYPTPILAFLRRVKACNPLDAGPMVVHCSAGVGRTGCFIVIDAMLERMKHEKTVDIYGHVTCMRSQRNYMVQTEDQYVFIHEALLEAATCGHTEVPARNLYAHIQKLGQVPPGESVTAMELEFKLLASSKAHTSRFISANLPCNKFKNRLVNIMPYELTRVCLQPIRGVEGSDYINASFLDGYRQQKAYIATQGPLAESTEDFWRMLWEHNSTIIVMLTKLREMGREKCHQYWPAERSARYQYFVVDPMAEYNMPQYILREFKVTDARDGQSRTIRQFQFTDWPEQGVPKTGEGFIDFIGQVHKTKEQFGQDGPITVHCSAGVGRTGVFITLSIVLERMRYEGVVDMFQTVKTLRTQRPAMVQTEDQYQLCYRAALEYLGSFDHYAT

`Cc1cc(=O)n2c3c(c4c(cc13)c(CO)cc(=O)n4C)OC2` [Example 1, nybomycin]: the IC50 is more than 20000 nM in experiment [1] (setting [12]), 730 nM in experiment [2], 720 nM in experiment [3] and 230 nM in experiment [4].
Regarding `Cc1cc(=O)n(C)c2c3c4c(cc12)c(C)cc(=O)n4CO3` [Example 2, deoxynybomycin], the half-maximal inhibitory concentration (IC50) in [1] (setting [12]) was more than 10000 nM.
Still for that read-out and setting: under `Cc1cc(=O)n(C)c2c3c4c(c(C)cc(=O)n4CO3)c(O)c12` [Example 3, 7-hydroxy-deoxynybomycin] stands 5000 nM; under `Cn1c(=O)cc(CO)c2cc3c(CO)cc(=O)n4c3c(c21)OC4` [Example 4, 6'-hydroxynybomycin], 14000 nM.
On to `Cc1cc(=O)[nH]c2c(O)c3c(cc12)c(C)cc(=O)n3C` [Example 5, 10-hydroxy-1,4,6-trimethylpyndo[3,2-g]quino-line-2,8(1H,9H)-dione], for which the IC50 in [1] (after 20 minutes of pre-incubation, read-out: IC50 against CDC25C) came to 180 nM; in experiment [5] it was 150 nM; in experiment [6] it was 230 nM; in [2], 100 nM; in experiment [3], 100 nM; in experiment [9] it was 100 nM. This molecule registered a half-maximal inhibitory concentration (IC50) in experiment [4] of less than 300 nM. Further, in [7], the “selectivity for CDC25 subtypes in comparison to PTP1 B” value turned out to be 13 fold. Moreover, in experiment [8], the “selectivity for CDC25 subtypes in comparison to LAR” value is 100 fold. Also, the “potential as inhibitors of CDC25 compared with the comparative examples (1, 2, 3, 4, 6 and 9)” value in experiment [10] is “much higher potential”.
Take `Cc1cc(=O)n(C)c2c(O)c3c(cc12)c(C)cc(=O)n3C` [Example 6, 10-hydroxy-1,4,6,9-tetramethylpyrido[3,2-g]-quinoline-2,8(1H,9H)-dione]: the IC50 in experiment [1] (setting [12]) was 14500 nM; in [2], 3000 nM; in experiment [3] it was 3000 nM; in [9] it was less than 10000 nM; in [4] it was less than 10000 nM.
Take `Cc1cc(=O)[nH]c2c(O)c3c(cc12)c(CO)cc(=O)n3C` [Example 7, 10-hydroxy-4-(hydroxymethyl)-1,6-dimethyl-pyrido[3,2-g]quinoline-2,8(1H,9H)-dione]: the IC50 in experiment [1] (setting [12]) came out at 930 nM. In experiment [10], the “potential as inhibitors of CDC25 compared with the comparative examples (1, 2, 3, 4, 6 and 9)” value is on record as “much higher potential”.
In the case of `Cc1cc(=O)n(C)c2c(O)c3c(cc12)c(C)cc(=O)n3O` [Example 8, 1,10-dihydroxy-4,6,9-trimethylpyrido[3,2-g]-quinoline-2,8(1H,9H)-dione], the concentration for half-maximal inhibition (IC50) in [1] (setting [12]) came to 520 nM. Further, in experiment [10], the “potential as inhibitors of CDC25 compared with the comparative examples (1, 2, 3, 4, 6 and 9)” value is on record as “much higher potential”.
Turning to `CCCc1c2c([nH]c(=O)c1C)C(=O)c1[nH]c(=O)c(C)c(CCC)c1C2=O` [Example 9, 3,7-dimethyl-4,6-dipropylpyrido[3,2-g]-qujnoline-2,5,8,10(1H,9H)-tetraone; Diazaquinomycin A], the half-inhibitory concentration (IC50) in experiment [1] (setting [12]) is 225000 nM.
As to `CCCc1c(C)c(=O)[nH]c2c(O)c3[nH]c(=O)c(C)c(CCC)c3cc12` [Example 10, 10-hydroxy-3,7-dimethyl-4,6-dipropylpyrido-[3,2-g]quinoline-2,8(1H,9H)-dione], in experiment [1] (setting [12]), the IC50 amounted to 850 nM. Besides, the “potential as inhibitors of CDC25 compared with the comparative examples (1, 2, 3, 4, 6 and 9)” value in [10] is recorded as “much higher potential”.
Regarding `C=C(C)CCC[C@]1(C)CCC[C@@H]2C1=CC[C@@H](C)[C@@]2(C)C[C@@H](O)C1=CC(=O)O[C@H]1O` [dysidiolide], the “inhibit CDC25” value in experiment [11] was “micromolar levels”.
Take coscinosulfate: in experiment [11], the “inhibit CDC25” value is on record as “micromolar levels”.
With nocardione, the “inhibit CDC25” value in [11] was “micromolar levels”.
